In patent US10927126B2, “Positive allosteric modulators of the muscarinic acetylcholine receptor M4” (Vanderbilt University, priority 2016, dated 2021):
pEC50: −log10 of the molar value. Counter-ions that a name gives are not always drawn.

Target: T1, Human M4 (Homo sapiens, UniProt P08173)
T1 sequence (P08173 1-479): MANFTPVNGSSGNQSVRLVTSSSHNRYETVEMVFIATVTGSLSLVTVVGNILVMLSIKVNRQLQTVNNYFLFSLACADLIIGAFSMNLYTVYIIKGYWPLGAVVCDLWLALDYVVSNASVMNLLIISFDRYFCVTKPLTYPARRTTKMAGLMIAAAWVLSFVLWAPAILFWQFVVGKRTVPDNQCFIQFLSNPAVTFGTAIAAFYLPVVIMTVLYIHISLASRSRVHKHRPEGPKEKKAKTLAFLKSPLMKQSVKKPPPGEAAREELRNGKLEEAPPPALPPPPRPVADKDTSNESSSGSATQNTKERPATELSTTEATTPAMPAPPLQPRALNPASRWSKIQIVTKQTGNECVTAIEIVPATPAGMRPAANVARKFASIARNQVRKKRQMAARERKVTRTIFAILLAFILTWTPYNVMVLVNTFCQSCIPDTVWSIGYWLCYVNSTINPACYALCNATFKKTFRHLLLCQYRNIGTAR
Experiment: mAChR M4 cell-based functional assay (calcium flux, potentiation of EC20 acetylcholine response)
Parameters: Emax: dose or concentration left out as unconfirmed

SMILES	pEC50	Emax
Cc1cc(C)c2c(n1)sc1c(NC3CCCC3)nccc12 [Compound 1, N-cyclopentyl-2,4-dimethylthieno[2,3-b: 5,4-c]dipyridin-8-amine]	6.91	67%
Cc1cc(C)c2c(n1)sc1c(N3CCCC3)nccc12 [Compound 2, 2,4-dimethyl-8-(pyrrolidin-1-yl)thieno[2,3-b:5,4-c′]dipyridine]	6.63	97.8%
Cc1cc(C)c2c(n1)sc1c(NC3CCC3)nccc12 [Compound 3, N-cyclobutyl-2,4-dimethylthieno[2,3-b:5,4-c′]dipyridin-8-amine dihydrochloride]	7.07	89.8%
Cc1cc(C)c2c(n1)sc1c(N(C)C)nccc12 [Compound 4, N,N,2,4-tetramethylthieno[2,3-b:5,4-c′]dipyridin-8-amine]	6.69	81.9%
Cc1nnc2sc3c(NC4CCCC4)nccc3c2c1C [Compound 5, N-Cyclopentyl-3,4-dimethyl-pyrido[4′,3′:4,5]thieno[2,3-c]pyridazin-8-amine Hydrochloride]	7.91	80.3%
Cc1nnc2sc3c(N4CCCC4)nccc3c2c1C [Compound 6, 3,4-dimethyl-8-pyrrolidin-1-yl-pyrido[4′,3′:4,5]thieno[2,3-c]pyridazine hydrochloride]	7.63	73%
Cc1nnc2sc3c(NC4CCC4)nccc3c2c1C [Compound 7, N-cyclobutyl-3,4-dimethyl-pyrido[4′,3′:4,5]thieno[2,3-c]pyridazin-8-amine hydrochloride]	7.22	80.2%
Cc1nnc2sc3c(NC4CC4)nccc3c2c1C [Compound 8, N-cyclopropyl-3,4-dimethyl-pyrido[4′,3′:4,5]thieno[2,3-c]pyridazin-8-amine hydrochloride]	7.92	74.8%
COc1ccc(CNc2nccc3c2sc2nnc(C)c(C)c23)cc1 [Compound 9, N-[(4-methoxyphenyl)methyl]-3,4-dimethyl-pyrido[4′,3′:4,5]thieno[2,3-c]pyridazin-8-amine hydrochloride]		76.8%
Cc1nnc2sc3c(NC4CN(c5ncc(C(F)(F)F)cn5)C4)nccc3c2c1C [Compound 10, 3,4-dimethyl-N-[1-[5-(trifluoromethyl)pyrimidin-2-yl]azetidin-3-yl]pyrido[4′,3′:4,5]thieno[2,3-c]pyridazin-8-amine hydrochloride]	7.17	74.4%
Cc1nnc2sc3c(NCc4ccc(OC(F)(F)F)cc4)nccc3c2c1C [Compound 11, 3,4-dimethyl-N-[[4-(trifluoromethoxy)phenyl]methyl] pyrido[4′,3′:4,5]thieno[2,3-c]pyridazin-8-amine hydrochloride]	5.99	72.8%
Cc1nnc2sc3c(NC4CN(c5ncc(F)cn5)C4)nccc3c2c1C [Compound 12, N-[1-(5-fluoropyrimidin-2-yl)azetidin-3-yl]-3,4-dimethyl-pyrido[4′,3′:4,5]thieno[2,3-c]pyridazin-8-amine hydrochloride]	7.74	77.4%
Cc1nnc2sc3c(NCc4ccc(C(=O)N5CCOCC5)cc4)nccc3c2c1C [Compound 13, [4-[[(3,4-dimethylpyrido[4′,3′:4,5]thieno[2,3-c]pyridazin-8-yl)amino]methyl]phenyl]-morpholino-methanone]	7.18	81.9%
COc1ccc(CNc2nccc3c2sc2nnc(C)c(C)c23)cc1F [Compound 14, N-[(3-fluoro-4-methoxy-phenyl)methyl]-3,4-dimethylpyrido[4′,3′:4,5]thieno[2,3-c]pyridazin-8-amine hydrochloride]	7.84	91.3%
Cc1nnc2sc3c(NCc4ccc(C(C)(C)O)cc4)nccc3c2c1C [Compound 15, 2-[4-[[(3,4-dimethylpyrido[4′,3′:4,5]thieno[2,3-c]pyridazin-8-yl)amino]lmethyl]phenyl]propan-2-ol]	7.46	97.4%
Cc1nnc2sc3c(NCc4ccc(F)c(F)c4)nccc3c2c1C [Compound 16, N-[(3,4-difluorophenyl)methyl]-3,4-dimethyl-pyrido[4′,3′:4,5]thieno[2,3-c]pyridazin-8-amine hydrochloride]	6.71	81.5%
Cc1nnc2sc3c(NCc4ccc(C(F)(F)F)c(F)c4)nccc3c2c1C [Compound 17, N-[[3-fluoro-4-(trifluoromethyl)phenyl]methyl]-3,4-dimethyl-pyrido[4′,3′:4,5]thieno[2,3-c]pyridazin-8-amine hydrochloride]	5.76	66.6%

SMILES	pEC50	Emax
Cc1nnc2sc3c(NCc4ccc(OCC5CC5)c(F)c4)nccc3c2c1C [Compound 18, N-[[4-(cyclopropylmethoxy)-3-fluoro-phenyl]methyl]-3,4-dimethyl-pyrido[4′,3′:4,5]thieno[2,3-c]pyridazin-8-amine hydrochloride]	6.17	88.6%
Cc1nnc2sc3c(NC4CN(c5ccc(F)c(F)c5)C4)nccc3c2c1C [Compound 19, N-[1-(3,4-difluorophenyl)azetidin-3-yl]-3,4-dimethyl-pyrido[4′,3′:4,5]thieno[2,3-c]pyridazin-8-amine hydrochloride]	6.79	74.2%
Cc1nnc2sc3c(NCc4ccc(C(C)(C)O)c(F)c4)nccc3c2c1C [Compound 20, 2-[4-[[(3,4-dimethylpyrido[4′,3′:4,5]thieno[2,3-c]pyridazin-8-yl)amino]methyl]-2-fluoro-phenyl]propan-2-ol]	7.40	85.6%
Cc1nnc2sc3c(NCc4ccc(C(C)(C)O)cc4F)nccc3c2c1C [Compound 21, 2-[4-[[(3,4-dimethylpyrido[4′,3′:4,5]thieno[2,3-c]pyridazin-8-yl)amino]methyl]-3-fluoro-phenyl]propan-2-ol]	7.10	80%
Cc1nnc2sc3c(NC4CN(c5ccc(C#N)cn5)C4)nccc3c2c1C [Compound 22, 6-[3-[(3,4-dimethylpyrido[4′,3′:4,5]thieno[2,3-c]pyridazin-8-yl)amino]azetidin-1-yl]pyridine-3-carbonitrile]	7.77	117%
Cc1nnc2sc3c(N4CCCC4)ncc(Cl)c3c2c1C [Compound 23, 5-Chloro-3,4-dimethyl-8-pyrrolidin-1-yl-pyrido[4′,3′:4,5]thieno[2,3-c]pyridazine Hydrochloride]	6.45	36.5%
Cc1cc(C)c2c(n1)sc1c(NC3CN(c4ncc(C(F)(F)F)cn4)C3)nccc12 [Compound 24, 2,4-dimethyl-N-(1-(5-(trifluoromethyl)pyrimidin-2-yl)azetidin-3-yl)thieno[2,3-b:5,4-c′]dipyridin-8-amine]	6.82	80.1%
COc1ccc(CNc2nccc3c2sc2nc(C)cc(C)c23)cc1F [Compound 25, N-(3-fluoro-4-methoxybenzyl)-2,4-dimethylthieno[2,3-b:5,4-c′]dipyridin-8-amine]	< 5.00	90.3%
Cc1cc(C)c2c(n1)sc1c(NCc3ccc(C(C)(C)O)cc3)nccc12 [Compound 26, 2-(4-(((2,4-dimethylthieno[2,3-b:5,4-c′]dipyridin-8-yl)amino)methyl)phenyl)propan-2-ol]	6.49	101%
Cc1cc(C)c2c(n1)sc1c(NCc3ccc(C(C)(C)O)cc3F)nccc12 [Compound 27, 2-(4-(((2,4-dimethylthieno[2,3-b:5,4-c′]dipyridin-8-yl)amino)methyl)-3-fluorophenyl)propan-2-ol]	5.96	102%
COc1ccc(CNc2nccc3c2sc2nc(C)c(Cl)c(C)c23)cc1 [Compound 28, 3-Chloro-N-(4-methoxybenzyl)-2,4-dimethylthieno[2,3-b:5,4-c′]dipyridin-8-amine]	5.30	60.8%
Cc1nc2sc3c(NCc4ccc(C(C)(C)O)cc4)nccc3c2c(C)c1Cl [Compound 29, 2-(4-(((3-chloro-2,4-dimethylthieno[2,3-b:5,4-c′]dipyridin-8-yl)amino)methyl)phenyl)propan-2-ol]	5.81	72.9%
Cc1nc2sc3c(N4CCCC4)nccc3c2c(C)c1Cl [Compound 30, 3-chloro-2,4-dimethyl-8-(pyrrolidin-1-yl)thieno[2,3-b:5,4-c′]dipyridine]	6.15	79.5%
Cc1nc2sc3c(NCc4ccc(C(C)(C)O)c(F)c4)nccc3c2c(C)c1Cl [Compound 31, 2-(4-(((3-chloro-2,4-dimethylthieno[2,3-b:5,4-c′]dipyridin-8-yl)amino)methyl)-2-fluorophenyl)propan-2-ol]	5.58	76.6%
COc1ccc(CNc2nccc3c2sc2nnc(Cl)c(C)c23)cc1 [Compound 32, 3-chloro-N-(4-methoxybenzyl)-4-methylpyrido[4′,3′:4,5]thieno[2,3-c]pyridazin-8-amine]	7.24	77.5%
Cc1c(Cl)nnc2sc3c(NC4CN(c5ncc(C(F)(F)F)cn5)C4)nccc3c12 [Compound 33, 3-chloro-4-methyl-N-(1-(5-(trifluoromethyl)pyrimidin-2-yl)azetidin-3-yl)pyrido[4′,3′:4,5]thieno[2,3-c]pyridazin-8-amine, 2,2,2-trifluoroacetic acid salt]	7.27	85.3%
Cc1c(Cl)nnc2sc3c(NC4CCC4)nccc3c12 [Compound 34, 3-chloro-N-cyclobutyl-4-methylpyrido[4′,3′:4,5]thieno[2,3-c]pyridazin-8-amine]	7.63	91.4%
